From paper PMC7704495 (Pharmacological Reports, 2020)

Key:
[1] = biological target: T1, CYP2D6 (Homo sapiens, UniProt P10635); test: CYP2D6 inhibition, bufuralol 1′-hydroxylation in cDNA-expressed CYP2D6 (supersomes); format: in vitro ADME; details: for type of inhibition: Lineweaver–Burk; for Ki: bufuralol 1′-hydroxylation
Protocol: (§1) The following probe reactions were applied, according to the methods previously described: caffeine 3-N-demethylation for CYP1A2 (caffeine 200, 400 and 800 µM), diclofenac 4′-hydroxylation for CYP2C9 (diclofenac 5, 10, 25 µM), perazine N-demethylation for CYP2C19 (perazine 50, 100, 200 µM), bufuralol 1′-hydroxylation for CYP2D6 (bufuralol 10, 25, 50 µM), and testosterone 6β-hydroxylation for CYP3A4 (50, 100 and 200 µM). Incubation systems for CYP2C9, 2C19 and 3A4 contained: 50 mM TRIS/KCL buffer (pH = 7.4), NADPH generating system (1 mM NADP, 5 mM glucose 6-phosphate, 1.7 U/ml glucose 6-phosphate dehydrogenase, 1 mM EDTA and 3 mM MgCl2). Incubation mixture for CYP1A2 included: 0.15 M phosphate buffer (pH = 7.4) and 1 mM NADPH, and for CYP2D6: 0.1 M TRIS/KCL buffer (pH = 7.4), NADPH generating system (1.3 mM NADP, 3.3 mM glucose 6-phosphate, 1 U/ml glucose 6-phosphate dehydrogenase and 3.3 mM MgCl2). The appropriate concentrations of human liver microsomes (0.5 mg/ml for each reaction) or supersomes (50 pmol CYP/ml), various concentrations of a probe substrate in the absence or presence of neuroleptic (concentrations: 0.1, 0.5, 1, 5, 10 µM) were added, The final volume of the reaction mixture was 0.5 ml. The incubation time for supersomes was 30 min (for each reaction) and for liver microsomes: 30 min (diclofenac 4′-hydroxylation and bufuralol 1′-hydroxylation), 20 min (perazine N-demethylation and testosterone 6β-hydroxylation) or 50 min (caffeine 3-N-demethylation). After the reactions had been stopped, the concentrations of specific substrates and their metabolites formed in liver microsomes or supersomes were assessed by the HPLC method with UV detection (or fluorimetric detection for CYP2D6), as described previously.
(§2) Kinetic parameters (Km, Vmax, Ki) describing the course of CYP-specific reactions in liver microsomes or supersomes were obtained using the Michaelis–Menten approach and a non-linear regression analysis (Program Sigma Plot 12.3 Enzyme Kinetics).

[2] = biological target: T2, CYP3A4 (Homo sapiens, UniProt P08684); test: CYP3A4 inhibition, testosterone 6β-hydroxylation in cDNA-expressed CYP3A4 (supersomes)
Protocol: as §1, §2

[3] = biological target: T3, CYP2C9 (Homo sapiens, UniProt P11712); test: CYP2C9 inhibition, diclofenac 4′-hydroxylation in cDNA-expressed CYP2C9 (supersomes); format: in vitro ADME; details: for type of inhibition: Lineweaver–Burk
T3 construct: purchased Corning (Woburn, USA); host or cells: baculovirus-infected insect cells
Protocol: as §1, §2

[4] = biological target: T1, CYP2D6; test: CYP2D6 inhibition, bufuralol 1′-hydroxylation in pooled human liver microsomes; format: in vitro ADME; parameters: a Human liver microsomes; tissue Corning (Woburn, USA); host or cells: pooled human liver microsomes; details: for type of inhibition: Lineweaver–Burk; for Ki: bufuralol 1′-hydroxylation
Protocol: as §1, §2

[5] = biological target: T2, CYP3A4; test: CYP3A4 inhibition, testosterone 6β-hydroxylation in pooled human liver microsomes
Protocol: as §1, §2

[6] = lipophilicity; cited from earlier work
[7] = biological target: T4, CYP2C19 (Homo sapiens, UniProt P33261); test: CYP2C19 inhibition, perazine N-demethylation in pooled human liver microsomes; format: in vitro ADME; parameters: a Human liver microsomes; tissue Corning (Woburn, USA); host or cells: pooled human liver microsomes; details: for type of inhibition: Lineweaver–Burk; for Ki: perazine N-demethylation
Protocol: as §1, §2

[8] = biological target: T5, CYP1A2 (Homo sapiens, UniProt P05177); test: CYP1A2 inhibition, caffeine 3-N-demethylation in pooled human liver microsomes; format: in vitro ADME; details: for type of inhibition: Lineweaver–Burk; for Ki: caffeine 3-N-demethylation
T5 construct: purchased Corning (Woburn, USA); host or cells: baculovirus-infected insect cells
T5 sequence (P05177 1-516): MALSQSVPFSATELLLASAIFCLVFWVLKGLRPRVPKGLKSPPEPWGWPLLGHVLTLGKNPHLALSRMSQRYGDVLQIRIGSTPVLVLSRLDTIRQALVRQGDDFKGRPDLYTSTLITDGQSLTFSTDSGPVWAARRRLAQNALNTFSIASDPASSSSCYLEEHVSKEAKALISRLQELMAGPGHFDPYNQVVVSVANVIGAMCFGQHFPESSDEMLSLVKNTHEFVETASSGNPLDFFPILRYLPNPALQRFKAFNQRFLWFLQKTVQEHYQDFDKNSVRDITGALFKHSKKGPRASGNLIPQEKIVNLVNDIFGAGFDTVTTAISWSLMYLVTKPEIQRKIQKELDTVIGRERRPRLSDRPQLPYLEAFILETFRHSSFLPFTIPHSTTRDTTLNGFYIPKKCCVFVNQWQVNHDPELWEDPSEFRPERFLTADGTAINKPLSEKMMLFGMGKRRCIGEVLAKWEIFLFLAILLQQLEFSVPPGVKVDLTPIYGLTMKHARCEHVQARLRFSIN
Protocol: as §1, §2

[9] = biological target: T3, CYP2C9; test: CYP2C9 inhibition, diclofenac 4′-hydroxylation in pooled human liver microsomes; format: in vitro ADME; details: for type of inhibition: Lineweaver–Burk
Protocol: as §1, §2

[10] = biological target: T5, CYP1A2; test: CYP1A2 inhibition, caffeine 3-N-demethylation in cDNA-expressed CYP1A2 (supersomes); format: in vitro ADME; details: for type of inhibition: Lineweaver–Burk; for Ki: caffeine 3-N-demethylation
Protocol: as §1, §2

[11] = biological target: T4, CYP2C19; test: CYP2C19 inhibition, perazine N-demethylation in cDNA-expressed CYP2C19 (supersomes); format: in vitro ADME; details: for type of inhibition: Lineweaver–Burk; for Ki: perazine N-demethylation
Protocol: as §1, §2

[12] = patients; cited from earlier work

T2 sequence (P08684 whole entry): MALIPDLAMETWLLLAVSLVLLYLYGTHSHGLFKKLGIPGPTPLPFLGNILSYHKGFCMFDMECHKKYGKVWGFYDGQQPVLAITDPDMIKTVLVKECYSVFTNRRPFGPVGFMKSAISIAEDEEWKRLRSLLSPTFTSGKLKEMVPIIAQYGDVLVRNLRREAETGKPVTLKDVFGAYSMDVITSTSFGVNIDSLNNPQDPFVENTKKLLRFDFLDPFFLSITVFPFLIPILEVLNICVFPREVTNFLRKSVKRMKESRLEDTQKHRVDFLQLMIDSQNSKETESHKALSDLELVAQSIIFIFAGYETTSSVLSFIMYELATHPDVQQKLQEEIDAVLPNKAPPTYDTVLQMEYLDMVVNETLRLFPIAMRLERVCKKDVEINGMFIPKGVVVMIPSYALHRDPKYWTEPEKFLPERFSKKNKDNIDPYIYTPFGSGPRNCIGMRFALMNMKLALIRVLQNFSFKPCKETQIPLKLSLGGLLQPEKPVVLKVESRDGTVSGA
T1 sequence (P10635 whole entry): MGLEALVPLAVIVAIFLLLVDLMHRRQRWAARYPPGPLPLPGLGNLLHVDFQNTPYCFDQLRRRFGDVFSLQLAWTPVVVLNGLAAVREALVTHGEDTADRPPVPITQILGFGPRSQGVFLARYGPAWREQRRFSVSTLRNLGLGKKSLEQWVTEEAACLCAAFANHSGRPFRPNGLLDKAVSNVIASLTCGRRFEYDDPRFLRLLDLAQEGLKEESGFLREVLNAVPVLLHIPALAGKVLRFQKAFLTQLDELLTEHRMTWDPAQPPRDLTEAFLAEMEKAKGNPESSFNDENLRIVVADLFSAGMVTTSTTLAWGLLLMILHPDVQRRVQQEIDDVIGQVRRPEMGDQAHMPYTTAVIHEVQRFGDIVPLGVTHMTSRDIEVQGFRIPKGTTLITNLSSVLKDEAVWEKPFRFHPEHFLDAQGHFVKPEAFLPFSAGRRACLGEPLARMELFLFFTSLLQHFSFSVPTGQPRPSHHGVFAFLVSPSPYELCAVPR
T4 sequence (P33261 whole entry): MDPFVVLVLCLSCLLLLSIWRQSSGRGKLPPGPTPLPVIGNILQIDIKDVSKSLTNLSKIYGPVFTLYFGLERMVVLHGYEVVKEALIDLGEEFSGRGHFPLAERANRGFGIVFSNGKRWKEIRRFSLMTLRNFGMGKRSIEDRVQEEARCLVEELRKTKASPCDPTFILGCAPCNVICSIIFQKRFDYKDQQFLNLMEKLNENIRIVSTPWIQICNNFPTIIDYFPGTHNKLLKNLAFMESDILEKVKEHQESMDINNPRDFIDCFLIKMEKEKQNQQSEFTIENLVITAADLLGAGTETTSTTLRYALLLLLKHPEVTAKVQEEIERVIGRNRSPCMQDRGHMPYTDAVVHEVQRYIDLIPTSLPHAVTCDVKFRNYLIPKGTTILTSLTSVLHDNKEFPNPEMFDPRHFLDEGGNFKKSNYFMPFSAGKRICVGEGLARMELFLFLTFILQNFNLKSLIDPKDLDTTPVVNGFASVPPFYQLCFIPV
T3 sequence (P11712 whole entry): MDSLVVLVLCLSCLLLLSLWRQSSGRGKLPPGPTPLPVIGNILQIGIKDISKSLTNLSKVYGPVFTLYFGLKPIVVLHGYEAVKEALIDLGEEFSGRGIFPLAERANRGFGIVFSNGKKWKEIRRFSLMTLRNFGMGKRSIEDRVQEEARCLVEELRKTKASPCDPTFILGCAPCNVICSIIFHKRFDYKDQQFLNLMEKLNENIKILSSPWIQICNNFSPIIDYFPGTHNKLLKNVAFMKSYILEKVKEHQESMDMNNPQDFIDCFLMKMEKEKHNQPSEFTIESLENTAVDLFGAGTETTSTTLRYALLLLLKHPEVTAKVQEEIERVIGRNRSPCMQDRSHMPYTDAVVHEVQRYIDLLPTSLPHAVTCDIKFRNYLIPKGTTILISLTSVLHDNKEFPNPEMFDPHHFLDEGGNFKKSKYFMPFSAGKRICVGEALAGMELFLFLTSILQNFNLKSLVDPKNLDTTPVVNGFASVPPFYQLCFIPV

Compound	type of inhibition [1]	Ki [1]	type of inhibition [2]	type of inhibition ([2]; human, 30 min, pH 7.4)	type of inhibition [4]	Ki [4]	type of inhibition [5]	type of inhibition ([5]; human, 20 min, pH 7.4)	log P [6]	type of inhibition [7]	Ki [7]	type of inhibition [8]	Ki [8]	type of inhibition [10]	Ki [10]	type of inhibition [11]	Ki [11]	therapeutic plasma concentration [12]	also measured
COc1cc(C(C)=O)ccc1OCCCN1CCC(c2noc3cc(F)ccc23)CC1 [Iloperidone, iloperidone]	Competitive	10 µM	noncompetitive	Noncompetitive	Competitive	2.9 µM	noncompetitive	Noncompetitive	4.43	Mixed	6.5 µM	Mixed	45 µM	Mixed	31 µM	Mixed	32 µM	up to 0.2 μM	type of inhibition ([1]; listed as iloperidone): competitive; Ki at 30 min ([3]; human, pH 7.4, probe diclofenac (4′-hydroxylation), CYP2C9, supersomes, diclofenac 4′-hydroxylation): > 10 µM; effect on the activity of CYP2C9 ([3]; supersomes, neuroleptic 0.1-10 µM): did not affect; type of inhibition ([4]; listed as iloperidone): competitive; type of inhibition ([7]; listed as iloperidone): mixed; type of inhibition ([8]; listed as iloperidone): mixed; Ki at 30 min ([9]; human, pooled human liver microsomes, pH 7.4, probe diclofenac (4′-hydroxylation), CYP2C9, liver microsomes, diclofenac 4′-hydroxylation): > 10 µM; effect on the activity of CYP2C9 ([9]; liver microsomes, neuroleptic 0.1-10 µM): did not affect; type of inhibition ([10]; listed as iloperidone): mixed; type of inhibition ([11]; listed as iloperidone): mixed
O=C1[C@@H]2[C@H]3CC[C@H](C3)[C@@H]2C(=O)N1C[C@@H]1CCCC[C@H]1CN1CCN(c2nsc3ccccc23)CC1 [Lurasidone, lurasidone]	Competitive	85 µM	competitive	Competitive	Competitive	37.5 µM	competitive	Competitive	5.6	Mixed	18 µM	Mixed	12.6 µM	Mixed	15.5 µM	Mixed	18.4 µM	≤ 1.2 µM	type of inhibition ([1]; listed as lurasidone): competitive; Ki [2]: 9.1 µM; type of inhibition ([3]; CYP2C9, supersomes): Mixed; type of inhibition ([3]; CYP2C9, supersomes, listed as lurasidone): mixed; Ki ([3]; CYP2C9, supersomes, diclofenac 4′-hydroxylation): 3.5 µM; type of inhibition ([4]; listed as lurasidone): competitive; Ki [5]: 29.4 µM; type of inhibition ([7]; listed as lurasidone): mixed; type of inhibition ([8]; listed as lurasidone): mixed; type of inhibition ([9]; CYP2C9, liver microsomes): Mixed; type of inhibition ([9]; CYP2C9, liver microsomes, listed as lurasidone): mixed; Ki ([9]; CYP2C9, liver microsomes, diclofenac 4′-hydroxylation): 18 µM; type of inhibition ([10]; listed as lurasidone): mixed; type of inhibition ([11]; listed as lurasidone): mixed
